Measured values from patent publication US11208387B2, “Macrocyclic broad spectrum antibiotics” (Genentech, Inc., priority 2019, dated 2021).
In brackets after ≈: the same amount, converted by molar mass. Where two headings read alike, the source gives them in different places.

Experiments:
Assay in all cases: Serum MIC, broth micro-dilution
Type in all cases: cell-based
[1] = system: Acinetobacter baumannii ATCC 17978; settings: Acinetobacter baumannii
Outline: (§1)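 CLSI broth micro-dilution MIC run in 50% v/v cation-adjusted Mueller Hinton II broth plus 50% v/v mouse serum. Compounds were serially 2-fold diluted (10 concentrations) from a top concentration of 64, 4, 0.5 or 0.13 μg/mL; inoculum at final OD600 0.0005, incubated 35° C for 22 hours.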

[2] = system: Escherichia coli strain ATCC 25922; settings: Escherichia coli, read-out: E. coli 25922 Serum MIC
Outline: as §1

[3] = system: Klebsiella pneumoniae ATCC 700603; settings: Klebsiella pneumoniae
Outline: as §1

[4] = system: Pseudomonas aeruginosa PA01; settings: Pseudomonas aeruginosa, read-out: P. aeruginosa 01 Serum MIC
Outline: as §1

[5] = ATCC17978, 50% v/v mouse serum in Mueller Hinton II cation adjusted Broth, 35° C., 22 hours, Table 4, read-out: A. baumanii 17978 Serum MIC
[6] = ATCC17978, 50% v/v mouse serum in Mueller Hinton II cation adjusted Broth, 35° C., 22 hours, Table 5, read-out: Acinetobacter baumanii 17978 Serum MIC
[7] = ATCC25922, 50% v/v mouse serum in Mueller Hinton II cation adjusted Broth, 35° C., 22 hours, Table 4
[8] = ATCC700603, 50% v/v mouse serum in Mueller Hinton II cation adjusted Broth, 35° C., 22 hours, Table 4, read-out: K pneumoniae 700603 Serum MIC
[9] = PA01, 50% v/v mouse serum in Mueller Hinton II cation adjusted Broth, 35° C., 22 hours, Table 4
[10] = ATCC17978, 50% v/v mouse serum, compounds of Table 1, Table 7, read-out: A. baumanii 17978 Serum MIC
[11] = ATCC25922, 50% v/v mouse serum, compounds of Table 1, Table 7
[12] = ATCC700603, 50% v/v mouse serum, compounds of Table 1, Table 7, read-out: K. pneumoniae 700603 Serum MIC
[13] = PA01, 50% v/v mouse serum, compounds of Table 1, Table 7

| SMILES | MIC [1, 5] | MIC [1, 6] | MIC [2, 7] | MIC [3, 8] | MIC [4, 9] | further results |
| --- | --- | --- | --- | --- | --- | --- |
| C[C@@H]1NC(=O)[C@@H](N(C)C(=O)[C@H](CCN)NC(=O)c2c(N)nc(-c3ccc(C(C)(C)C)cc3)nc2Cl)c2cc(OC[C@H](O)CN)c(O)c(c2)-c2cc(ccc2OC[C@H](O)CN)C[C@@H](C(=O)O)NC1=O [Example 55, (8S,11S,14S)-18-hydroxy-11-methyl-14-[methyl-[(2S)-4-amino-2-[[4-amino-2-(4-tert-butylphenyl)-6-chloro-pyrimidine-5-carbonyl]amino]-butanoyl]amino]-10,13-dioxo-3,17-bis[(2R)-3-amino-2-hydroxy-propoxy]-9,12-diazatricyclo-[13.3.1.12,6]icosa-1(18),2(20),3,5,15(19), 16-hexaene-8-carboxylic acid] | 6 µM (≈ 5.78 µg/mL) | 6 µM (≈ 5.78 µg/mL) | 0.19 µM (≈ 0.183 µg/mL) | 0.19 µM (≈ 0.183 µg/mL) | 6 µM (≈ 5.78 µg/mL) | – |
| Cc1nc(-c2ccc(C(C)(C)C)cc2)nc(C)c1C(=O)N[C@@H](CCN)C(=O)N(C)[C@@H]1C(=O)N[C@@H](C)C(=O)N[C@H](C(=O)O)Cc2ccc(OCCN)c(c2)-c2cc1ccc2OCCN (racemic) [Example 645] | – | – | – | – | – | MIC [1, 10]: 67 µM (≈ 58 µg/mL); MIC [2, 11]: 0.53 µM (≈ 0.459 µg/mL); MIC [3, 12]: 0.55 µM (≈ 0.476 µg/mL); MIC [4, 13]: 67 µM (≈ 58 µg/mL) |
| C[C@@H]1NC(=O)[C@@H](N(C)C(=O)[C@H](CNS(N)(=O)=O)NC(=O)c2c(N)nc(-c3ccc(C(C)(C)C)cc3)nc2Cl)c2cc(OC[C@H](O)CN)c(O)c(c2)-c2cc(ccc2OC[C@H](O)CN)C[C@@H](C(=O)O)NC1=O [Example 53, (8S,11S,14S)-14-[[(2S)-2-[[4-amino-2-(4-tert-butylphenyl)-6-chloro-pyrimidine-5-carbonyl]amino]-3-(sulfamoylamino)-propanoyl]-methyl-amino]-3,17-bis[(2R)-3-amino-2-hydroxy-propoxy]-18-hydroxy-11-methyl-10,13-dioxo-9,12-diazatri-cyclo[13.3.1.12,6]icosa-1(18),2(20),3,5,15(19), 16-hexaene-8-carboxylic acid] | 6 µM (≈ 6.17 µg/mL) | 6 µM (≈ 6.17 µg/mL) | 0.38 µM (≈ 0.391 µg/mL) | 0.5 µM (≈ 0.514 µg/mL) | 3 µM (≈ 3.09 µg/mL) | – |
| Cc1cc(-c2ccc(C(C)(C)C)cc2)nc(C)c1C(=O)N[C@@H](CCN)C(=O)N(C)[C@@H]1C(=O)N[C@@H](C)C(=O)N[C@H](C(=O)O)Cc2ccc(O)c(c2)-c2cc1ccc2OCCN (racemic) [Example 644] | – | – | – | – | – | MIC [1, 10]: 74 µM (≈ 60.8 µg/mL); MIC [2, 11]: 1.2 µM (≈ 0.986 µg/mL); MIC [3, 12]: 4.6 µM (≈ 3.78 µg/mL); MIC [4, 13]: 74 µM (≈ 60.8 µg/mL) |
| C[C@@H]1NC(=O)[C@@H](N(C)C(=O)[C@H](CNS(N)(=O)=O)NC(=O)c2c(Cl)cc(-c3ccc(C(C)(C)C)cc3)nc2N)c2cc(OC[C@H](O)CN)c(O)c(c2)-c2cc(ccc2OC[C@H](O)CN)C[C@@H](C(=O)O)NC1=O [Example 40, (8S,11S,14S)-14-[[(2S)-2-[[2-amino-6-(4-tert-butylphenyl)-4-chloro-pyridine-3-carbonyl]amino]-3-(sulfamoylamino)-propanoyl]-methyl-amino]-3,17-bis[(2R)-3-amino-2-hydroxy-propoxy]-18-hydroxy-11-methyl-10,13-dioxo-9,12-diazatri-cyclo[13.3.1.12,6]icosa-1(18),2(20),3,5,15(19), 16-hexaene-8-carboxylic acid] | 16 µM (≈ 16.4 µg/mL) | 16 µM (≈ 16.4 µg/mL) | 0.75 µM (≈ 0.771 µg/mL) | 0.5 µM (≈ 0.514 µg/mL) | 8 µM (≈ 8.22 µg/mL) | – |
| CCC(C)(C)c1ccc(-c2nc(C)c(C(=O)N[C@@H](CNS(N)(=O)=O)C(=O)N(C)[C@@H]3C(=O)N[C@@H](C)C(=O)N[C@H](C(=O)O)Cc4ccc(OC[C@H](O)CN)c(c4)-c4cc3cc(OC[C@H](O)CN)c4O)c(N)n2)cc1 [Example 45, (8S,11S,14S)-14-[[(2S)-2-[[4-amino-2-[4-(1,1-dimethyl-propyl)phenyl]-6-methyl-pyrimidine-5-carbonyl]amino]-3-(sulfamoylamino)-propanoyl]-methyl-amino]-3,17-bis[(2R)-3-amino-2-hydroxy-propoxy]-18-hydroxy-11-methyl-10,13-dioxo-9,12-diazatri-cyclo[13.3.1.12,6]icosa-1(18),2(20),3,5,15(19), 16-hexaene-8-carboxylic acid] | 8 µM (≈ 8.18 µg/mL) | 8 µM (≈ 8.18 µg/mL) | 0.5 µM (≈ 0.511 µg/mL) | 0.5 µM (≈ 0.511 µg/mL) | 3 µM (≈ 3.07 µg/mL) | – |
| C[C@@H]1NC(=O)[C@@H](N(C)C(=O)[C@H](CNS(N)(=O)=O)NC(=O)c2cnn(-c3ccc(OCCC(C)(C)C)cc3)c(=O)c2)c2cc(OC[C@H](O)CN)c(O)c(c2)-c2cc(ccc2OC[C@H](O)CN)C[C@@H](C(=O)O)NC1=O [Example 4, (8S,11S,14S)-18-hydroxy-11-methyl-14-[methyl-[(2S)-2-[[1-[4-(3,3-dimethyl-butoxy)phenyl]-6-oxo-pyridazine-4-carbonyl]amino]-3-(sulfamoylamino)-propanoyl]amino]-10,13-dioxo-3,17-bis[(2R)-3-amino-2-hydroxy-propoxy]-9,12-diazatricyclo-[13.3.1.12,6]icosa-1(18),2(20),3,5,15(19), 16-hexaene-8-carboxylic acid] | 24 µM (≈ 24.9 µg/mL) | 24 µM (≈ 24.9 µg/mL) | 1 µM (≈ 1.04 µg/mL) | 0.75 µM (≈ 0.779 µg/mL) | 12 µM (≈ 12.5 µg/mL) | – |
| Cc1nc(-c2ccc(OC(C)C)cc2)nc(C)c1C(=O)N[C@@H](CNS(N)(=O)=O)C(=O)N(C)[C@@H]1C(=O)N[C@@H](C)C(=O)N[C@H](C(=O)O)Cc2ccc(OC[C@H](O)CN)c(c2)-c2cc1cc(OC[C@H](O)CN)c2O [Example 13, (8S,11S,14S)-18-hydroxy-11-methyl-14-[methyl-[(2S)-2-[[2-(4-isopropoxy-phenyl)-4,6-dimethyl-pyrimidine-5-carbonyl]amino]-3-(sulfamoylamino)-propanoyl]amino]-10,13-dioxo-3,17-bis[(2R)-3-amino-2-hydroxy-propoxy]-9,12-diazatricyclo-[13.3.1.12,6]icosa-1(18),2(20),3,5,15(19), 16-hexaene-8-carboxylic acid] | – | – | – | – | – | MIC ([1]; ATCC17978, 22 h, read-out: A. baumanii 17978 Serum MIC): 32 µM (≈ 32.3 µg/mL); MIC ([1]; ATCC17978, 22 h, read-out: Acinetobacter baumanii 17978 Serum MIC): 32 µM (≈ 32.3 µg/mL); MIC ([2]; ATCC25922, 22 h): 1.5 µM (≈ 1.51 µg/mL); MIC ([3]; ATCC700603, 22 h, read-out: K pneumoniae 700603 Serum MIC): 1.5 µM (≈ 1.51 µg/mL); MIC ([4]; PA01, 22 h): 24 µM (≈ 24.2 µg/mL) |

More lines, main results first:

| MIC [1, 5] | MIC [1, 6] | MIC [2, 7] | MIC [3, 8] | MIC [4, 9] | SMILES | further results |
| --- | --- | --- | --- | --- | --- | --- |
| 12 µM (≈ 12.3 µg/mL) | 12 µM (≈ 12.3 µg/mL) | 0.5 µM (≈ 0.513 µg/mL) | 0.75 µM (≈ 0.77 µg/mL) | 4 µM (≈ 4.1 µg/mL) | Cc1nc(-c2ccc(C(C)(C)C)c(F)c2)nc(N)c1C(=O)N[C@@H](CNS(N)(=O)=O)C(=O)N(C)[C@@H]1C(=O)N[C@@H](C)C(=O)N[C@H](C(=O)O)Cc2ccc(OC[C@H](O)CN)c(c2)-c2cc1cc(OC[C@H](O)CN)c2O [Example 60, (8S,11S,14S)-14-[[(2S)-2-[[4-amino-2-(4-tert-butyl-3-fluoro-phenyl)-6-methyl-pyrimidine-5-carbonyl]amino]-3-(sulfamoylamino)-propanoyl]-methyl-amino]-3,17-bis[(2R)-3-amino-2-hydroxy-propoxy]-18-hydroxy-11-methyl-10,13-dioxo-9,12-diazatricyclo-[13.3.1.12,6]icosa-1(18),2(20),3,5,15(19), 16-hexaene-8-carboxylic acid] | – |
| 16 µM (≈ 14.8 µg/mL) | 16 µM (≈ 14.8 µg/mL) | 0.38 µM (≈ 0.352 µg/mL) | 0.25 µM (≈ 0.232 µg/mL) | 64 µM (≈ 59.3 µg/mL) | Cc1nc(-c2ccc(C3(C)CC3)cc2)ncc1C(=O)N[C@@H](CCN)C(=O)N(C)[C@@H]1C(=O)N[C@@H](C)C(=O)N[C@H](C(=O)O)Cc2ccc(OC[C@@H](O)CN)c(c2)-c2cc1cc(OC[C@@H](O)CN)c2O [Example 73, (8S,11S,14S)-3,17-bis[(2S)-3-amino-2-hydroxy-propoxy]-14-[[(2S)-4-amino-2-[[4-methyl-2-[4-(1-methylcyclopropyl)-phenyl]pyrimidine-5-carbonyl]amino]-butanoyl]-methyl-amino]-18-hydroxy-11-methyl-10,13-dioxo-9,12-diazatri-cyclo-[13.3.1.12,6]icosa-1(19),2(20),3,5,15,17-hexaene-8-carboxylic acid] | – |
| 16 µM (≈ 16.7 µg/mL) | 16 µM (≈ 16.7 µg/mL) | 0.5 µM (≈ 0.521 µg/mL) | 1 µM (≈ 1.04 µg/mL) | 4 µM (≈ 4.17 µg/mL) | Cc1nc(-c2ccc(C(C)(C)C)c(F)c2O)nc(N)c1C(=O)N[C@@H](CNS(N)(=O)=O)C(=O)N(C)[C@@H]1C(=O)N[C@@H](C)C(=O)N[C@H](C(=O)O)Cc2ccc(OC[C@H](O)CN)c(c2)-c2cc1cc(OC[C@H](O)CN)c2O [Example 67, (8S,11S,14S)-18-hydroxy-11-methyl-14-[methyl-[(2S)-2-[[4-amino-2-(4-tert-butyl-3-fluoro-2-hydroxy-phenyl)-6-methyl-pyrimidine-5-carbonyl]amino]-3-(sulfamoylamino)-propanoyl]amino]-10,13-dioxo-3,17-bis[(2R)-3-amino-2-hydroxy-propoxy]-9,12-diazatricyclo-[13.3.1.12,6]icosa-1(18),2(20),3,5,15(19), 16-hexaene-8-carboxylic acid] | – |
